Results as given in patent US20090191193A1, “Aryl Vinyl Sulfides, Sulfones, Sulfoxides and Sulfonamides, Derivatives Thereof and Therapeutic Uses Thereof” (TEMPLE UNIVERSITY-OF THE COMMONWEALTH SYSTEM OF HIGHER …, priority 2006, published 2009).

Experiments:
[1] = system: DU145 (prostate cancer); experiment: Effect on tumor cell lines, viable cell count by trypan blue exclusion (Latham et al.): DU145; format: cell-based; settings: DU145 prostate cancer cells, viable cell count 96 hours after treatment
Method: (§1) The effect of the compounds of the invention on tumor cells was determined by the assay described by Latham et al., Oncogene 12:827-837 (1996). Tumor cells DU145 (prostate cancer), K562 (chronic myelogenous leukaemia), BT20 (breast carcinoma), H157 (non small cell lung carcinoma), or DLD1 (colon carcinoma) were plated in 6-well dishes at a cell density of 1.0×10^5 cells per 35-mm^2 well. […] The total number of viable cells was determined 96 hours later by trypsinizing the wells and counting the number of viable cells, as determined by trypan blue exclusion, using a hemacytometer. Normal HFL cells were treated with the same compounds under the same conditions of concentration and time.

[2] = system: K562 (chronic myelogenous leukaemia); experiment: Effect on tumor cell lines, viable cell count by trypan blue exclusion (Latham et al.): K562; format: cell-based; settings: K562 chronic myelogenous leukaemia cells, viable cell count 96 hours after treatment
Method: as §1

Compound | IC50 ([1]; Homo sapiens, DU-145, 96 h) [µM] | IC50 ([2]; Homo sapiens, K562, 96 h) [µM] | melting point [°C] | IC50 [1] [µM] | IC50 [2] [µM]
N#C/C(=C\c1ccc(F)cc1F)S(=O)(=O)Nc1ccc(F)cc1 [Example 240] | 50 to 100 | 50 to 100 | 135 to 139 |  | 
N#C/C(=C\c1ccc([N+](=O)[O-])cc1F)S(=O)(=O)Cc1ccc(Cl)cc1 [Example 48] | 1 to 10 | 1 to 10 | 243 to 253 |  | 
N#C/C(=C\c1ccc(Cl)cc1Cl)S(=O)(=O)Cc1ccc(Cl)cc1 [Example 51] | 25 to 50 | 25 to 50 | 121 to 126 |  | 
N#C/C(=C\c1c[nH]c2ccccc12)S(=O)(=O)Nc1ccc(F)cc1 [Example 231] | 50 to 100 | 25 to 50 | 202 to 204 |  | 
COc1ccc(/C=C(\C#N)S(=O)(=O)Cc2ccc(OC)cc2)cc1 [Example 141] | > 100 | > 100 | 163 to 167 |  | 
N#C/C(=C\c1ccc(O)c([N+](=O)[O-])c1)S(=O)(=O)Cc1ccc(Cl)cc1 [Example 59] | 50 to 100 | 50 to 100 | 195 to 205 |  | 
N#C/C(=C\c1cc(Cl)cc(Cl)c1Cl)S(=O)(=O)Nc1ccc(F)cc1 [Example 243] | 10 to 25 | 10 to 25 | 184 to 186 |  | 
COc1ccccc1/C=C(\C#N)S(=O)(=O)Nc1ccc(F)cc1 [Example 247] | > 100 | > 100 | 152 to 154 |  | 
COc1cc(/C=C(\C#N)S(=O)(=O)Cc2ccccc2)cc(OC)c1 [Example 134] | 50 to 100 | 10 to 25 | 152 to 156 |  | 
N#C/C(=C\c1ccc(F)cc1Cl)S(=O)(=O)Cc1ccc(Cl)cc1Cl [Example 95] | 50 to 100 | 50 to 100 | 142 to 148 |  | 
Cc1ccoc1/C=C(\C#N)S(=O)(=O)Cc1ccc(Cl)cc1Cl [Example 103] | > 100 | 50 to 100 | 184 to 189 |  | 
COc1ccc(NS(=O)(=O)/C(C#N)=C/c2ccc(F)cc2)cc1 [Example 200] | > 100 | 50 to 100 | 107 to 109 |  | 
COc1ccc(/C=C(\C#N)S(=O)(=O)Cc2ccc(Cl)cc2)cc1O [Example 44] | > 100 | 50 to 100 | 155 to 165 |  | 
Cc1ccc(NS(=O)(=O)/C(C#N)=C/c2ccc(Cl)c(Cl)c2)c(C)c1 [Example 274] | 50 to 100 | 50 to 100 | 141 to 143 |  | 
N#C/C(=C\c1c[nH]c2ccccc12)S(=O)(=O)Cc1ccc(F)cc1 [Example 81] | 50 to 100 | 50 to 100 | 140 to 152 |  | 
COc1cc(/C=C(\C#N)S(=O)(=O)Cc2ccc(F)cc2)cc(OC)c1 [Example 86] | > 100 | > 100 | 120 to 123 |  | 
Cc1ccc(/C=C(\C#N)S(=O)(=O)Cc2ccc(F)cc2)cc1C [Example 88] | 25 to 50 | 10 to 25 | 122 to 132 |  | 
COc1ccc(NS(=O)(=O)/C(C#N)=C/c2c(OC)cc(OC)cc2OC)cc1 [Example 191] |  |  | 134 to 136 | 1 to 10 | 1 to 10
COc1ccc(/C=C(\C#N)S(=O)(=O)Cc2ccc(Cl)cc2Cl)c(OC)c1OC [Example 93] | 25 to 50 | 25 to 50 | 150 to 165 |  | 
CN(C)c1ccc(/C=C(\C#N)S(=O)(=O)Nc2ccccc2Oc2ccccc2)cc1 [Example 206] | > 100 | > 100 | 158 to 160 |  | 
COc1ccc(CS(=O)(=O)/C(C#N)=C/c2c(F)c(F)c(F)c(F)c2F)cc1OS(=O)(=O)c1ccc(C)cc1 [Example 38, (E)-2-[(4-methoxy-3-(4-methylphenylsulfonyloxy)phenyl)methanesulfonyl]-3-(2,3,4,5,6-pentafluorophenyl)acrylonitrile] | > 100 | 50 to 100 | 170 to 172 |  | 
COc1ccc(NS(=O)(=O)/C(C#N)=C/c2ccc(OC)c(OC)c2OC)cc1 [Example 285] | > 100 | 50 to 100 | 140 to 142 |  | 
COc1ccc(/C=C(\C#N)S(=O)(=O)Nc2ccc(Cl)cc2)cc1 [Example 195] | 50 to 100 | 50 to 100 | 94 to 96 |  | 
CCOc1ccc(/C=C(\C#N)S(=O)(=O)Nc2ccc(C)cc2C)cc1OC [Example 273] | > 100 | > 100 | 146 to 150 |  | 
COc1ccc(NS(=O)(=O)/C(C#N)=C/c2sccc2C)cc1 [Example 281] | > 100 | > 100 | 154 to 156 |  | 
N#C/C(=C\c1ccccc1Cl)S(=O)(=O)Nc1ccc(F)cc1 [Example 235] | 25 to 50 | 10 to 25 | 182 to 184 |  | 

Compound | IC50 ([1]; Homo sapiens, DU-145, 96 h) [µM] | IC50 ([2]; Homo sapiens, K562, 96 h) [µM] | melting point [°C] | IC50 [1] [µM] | IC50 [2] [µM]
COc1ccc(NS(=O)(=O)/C(C#N)=C/c2ccccc2OC)cc1 [Example 204] | > 100 | 50 to 100 | 133 to 135 |  | 
Cc1ccc(/C=C(\C#N)S(=O)(=O)Cc2ccc(Cl)cc2)s1 [Example 123] | > 100 | > 100 | 148 to 152 |  | 
Cc1ccc(NS(=O)(=O)/C(C#N)=C/c2cc(Cl)cc(Cl)c2Cl)c(C)c1 [Example 263] | < 1 | < 1 | 171 to 173 |  | 
N#C/C(=C\c1c[nH]c2ccccc12)S(=O)(=O)Nc1ccc(Cl)cc1 [Example 205] | 50 to 100 | 25 to 50 | 216 to 217 |  | 
N#C/C(=C\c1ccc(O)c([N+](=O)[O-])c1)S(=O)(=O)Nc1ccc(Br)cc1 [Example 223] | > 100 | > 100 | > 250 |  | 
COc1ccc(NS(=O)(=O)/C(C#N)=C/c2ccccc2O)cc1 [Example 292] | > 100 | 50 to 100 | 197 to 198 |  | 
N#C/C(=C\c1ccc(O)c(O)c1)S(=O)(=O)Cc1cccc(Br)c1 [Example 116] | > 100 | > 100 | 119 to 121 |  | 
Cc1ccc(/C=C(\C#N)S(=O)(=O)Cc2ccc(Br)cc2)s1 [Example 118] | > 100 | > 100 | 142 to 148 |  | 
Cc1ccc(C)c(/C=C(\C#N)S(=O)(=O)Cc2ccccc2)c1 [Example 136] | 25 to 50 | 1 to 10 | 126 to 129 |  | 
Cc1ccsc1/C=C(\C#N)S(=O)(=O)Nc1ccc(F)cc1 [Example 236] | > 100 | 50 to 100 | 179 to 181 |  | 
COc1cc(/C=C(\C#N)S(=O)(=O)Nc2ccc(C)cc2C)cc(OC)c1OC [Example 268] | > 100 | 50 to 100 | 178 to 180 |  | 
COc1cc(/C=C(\C#N)S(=O)(=O)Cc2ccc(Cl)cc2)cc(OC)c1 [Example 56] | 50 to 100 | 25 to 50 | 155 to 165 |  | 
Cc1ccoc1/C=C(\C#N)S(=O)(=O)Cc1ccccc1 [Example 128] | > 100 | 50 to 100 | 118 to 121 |  | 
Cc1ccc(NS(=O)(=O)/C(C#N)=C/c2ccc(N(C)C)cc2)c(C)c1 [Example 255] | 25 to 50 | 25 to 50 | 168 to 171 |  | 
N#C/C(=C\c1ccccc1O)S(=O)(=O)Cc1ccc(Cl)cc1 [Example 121] | > 100 | > 100 | 171 to 176 |  | 
COc1ccc(NS(=O)(=O)/C(C#N)=C/c2c(OC)cc(OC)cc2OC)cc1 [Example 279] |  |  | 151 to 154 | 25 to 50 | 10 to 25
COc1ccc(OC)c(/C=C(\C#N)S(=O)(=O)Cc2ccc(Cl)cc2Cl)c1 [Example 106] | 50 to 100 | 50 to 100 | 132 to 137 |  | 
COc1ccc(/C=C(\C#N)S(=O)(=O)Cc2ccc(Cl)cc2)c(F)c1 [Example 49] | > 100 | 50 to 100 | 145 to 155 |  | 
Cc1ccoc1/C=C(\C#N)S(=O)(=O)Cc1cccc(Br)c1 [Example 114] | > 100 | > 100 | 122 to 126 |  | 
N#C/C(=C\c1ccc(Br)cc1)S(=O)(=O)Nc1ccc(F)cc1 [Example 242] | 50 to 100 | 50 to 100 | 130 to 132 |  | 
COc1cc(OC)c(/C=C(\C#N)S(=O)(=O)Nc2ccc(C)cc2C)c(OC)c1 [Example 254] | 50 to 100 | 50 to 100 | 132 to 134 |  | 
N#C/C(=C\c1ccc(O)cc1O)S(=O)(=O)Cc1ccc(Cl)cc1Cl [Example 92] | 50 to 100 | 25 to 50 | 220 to 230 |  | 
Cc1ccc(NS(=O)(=O)/C(C#N)=C/c2ccc(C)s2)c(C)c1 [Example 265] | 50 to 100 | 25 to 50 | 158 to 160 |  | 
COc1cc(OC)c(OC)cc1/C=C(\C#N)S(=O)(=O)Nc1ccc(C)cc1C [Example 258] | > 100 | 50 to 100 | 161 to 163 |  | 
COc1ccc(NS(=O)(=O)/C(C#N)=C/c2ccc(O)cc2)cc1 [Example 289] | > 100 | 50 to 100 | 181 to 182 |  | 
